Assay results published in US6809119B2, “Branched chain amino acid-dependent aminotransferase inhibitors and their use in the treatment of neurodegenerative diseases” (Warner-Lambert Company LLC, priority 2001, dated 2004).

Assays:
[1] = molecular target: T1, rat BCAT cytosolic form (rrBCATc) (Rattus norvegicus, UniProt P54690); experiment: In vitro coupled enzyme assay, rat BCAT cytosolic form; format: biochemical; conditions: inhibition of recombinant rat BCATc; coupled glutamate dehydrogenase/NADH assay, 37° C., pH 7.8
T1 construct: inferred from purification on a Ni-charged chelating column with imidazole elution; made in house; host or cells: E. coli BL21(DE3)
T1 sequence (P54690 1-411): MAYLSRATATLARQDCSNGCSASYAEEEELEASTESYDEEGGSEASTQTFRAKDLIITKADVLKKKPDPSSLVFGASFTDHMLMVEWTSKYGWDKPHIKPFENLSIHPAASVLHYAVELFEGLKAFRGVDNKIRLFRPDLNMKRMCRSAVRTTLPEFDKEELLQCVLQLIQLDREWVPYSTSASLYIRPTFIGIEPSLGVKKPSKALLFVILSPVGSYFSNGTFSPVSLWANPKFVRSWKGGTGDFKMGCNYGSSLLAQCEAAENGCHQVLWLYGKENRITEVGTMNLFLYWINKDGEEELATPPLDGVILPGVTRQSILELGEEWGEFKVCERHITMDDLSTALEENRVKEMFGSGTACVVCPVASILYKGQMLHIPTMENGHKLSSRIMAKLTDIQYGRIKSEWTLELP
Procedure: (§1) In vitro enzyme assay: human Branched Chain Amino Acid Aminotransferase cytosolic form (hBCATc) and mitochondrial form (hBCATm) as well as rat BCAT cytosolic form were assayed at 37° C. in 25 mM phosphate buffer pH 7.8. In addition, 2 mM DTT and 12.5 mM EDTA were added to the assay mixture. A coupling enzyme assay was used to monitor the production of glutamate. The formation of NADH from NAD+at […] was followed on a 96-well plate Molecular Devices plate reader. The following components were used in this coupled assay: 4 mM ADP, 1 mM NAD+, 750 μM L-Leucine, 500 μM a-ketoglutarate, 10 μM pyridoxal phosphate, 1 unit glutamate dehydrogenase, and 1.25 μg of the appropriate BCAT enzyme. Inhibitions by compounds were assayed by adding various concentrations to this coupled assay procedure as a DMSO stock up to a 5% v/v DMSO/buffer ratio.
(§2) Enzyme Preparation: humanBCATc and ratBCATc were expressed in BL21(DE3) cells. A growing culture of cells was induced with 1 mM IPTG at room temperature overnight. These cells were harvested by centrifugation at 10,000 g for 20 minutes. The supernatant was discarded, and the cells were stored at −80° C. until needed. The protein was purified by the following method. The cell paste was resuspended in extraction buffer (0.1 M phosphate, pH 8.0, with 0.01 M Tris-HCL and 5 mM TCEP and then lysed on a French Press at 1000 psi. The lysate was centrifuged at 10,000 g for 15 minutes, and the pellet was discarded. The supernatant was loaded onto a Hitrap Chelating column previously charged with 0.1 M NiSO4 and washed with 3 to 4 column volumes of extraction buffer. The column was then washed with 0.01 Tris, pH 7.5, 10% glycerol, 150 mM NaCl, 5 mM TCEP for two column volumes. The column was then further washed with two column volumes of 0.1 M phosphate, pH 6.0, 0.01 M Tris, 10% glycerol, and 750 mM NaCl. Finally, the column was washed with two column volumes of the same buffer plus 50 mM imidazole. The BCAT enzyme was then eluted with the same buffer but with 350 mM imidazole. The eluant was then dialyzed overnight against 10 mM phosphate buffer pH 8.0, 10% glycerol, and 5 mM TCEP. The dialyzed protein was then loaded onto a Q-sepharose column and eluted using a salt gradient. Active fractions were collected and further purified on a Superose-12 column to yield pure BCAT protein.

[2] = molecular target: T2, human Branched Chain Amino Acid Aminotransferase cytosolic form (hBCATc) (Homo sapiens, UniProt P54687); experiment: In vitro coupled enzyme assay, human BCAT cytosolic form; format: biochemical; conditions: inhibition of recombinant human BCATc; coupled glutamate dehydrogenase/NADH assay, 37° C., pH 7.8; read-out: rhBCATc
T2 construct: inferred from purification on a Ni-charged chelating column with imidazole elution; made in house; host or cells: E. coli BL21(DE3)
T2 sequence (P54687 1-386): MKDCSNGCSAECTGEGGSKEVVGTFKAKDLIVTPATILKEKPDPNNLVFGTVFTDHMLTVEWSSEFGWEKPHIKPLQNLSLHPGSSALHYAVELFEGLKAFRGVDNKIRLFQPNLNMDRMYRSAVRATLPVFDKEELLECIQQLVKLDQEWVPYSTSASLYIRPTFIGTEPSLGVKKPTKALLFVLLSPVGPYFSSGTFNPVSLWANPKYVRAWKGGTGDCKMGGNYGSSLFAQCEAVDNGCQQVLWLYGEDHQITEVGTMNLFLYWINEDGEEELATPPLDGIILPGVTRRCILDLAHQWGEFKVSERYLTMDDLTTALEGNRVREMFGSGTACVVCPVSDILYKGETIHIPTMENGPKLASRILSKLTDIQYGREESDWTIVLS
Procedure: as §1, §2

SMILES | melting point | IC50 [1] [µM] | IC50 [2] [µM]
O=C(NNS(=O)(=O)c1ccccc1)c1ccc(C#Cc2ccccc2)cc1 [Example 32, 4-Phenacetylenyl-benzoic acid, 2-(phenylsulfonyl)hydrazide] | 175 °C (dec.) | 1.3 | 27.6
O=C(NNS(=O)(=O)c1ccccc1)c1ccc(C#CC2(O)CCCCC2)cc1 [Example 35] | 96 to 97 °C | 2.2 | 43.5
O=C(NNS(=O)(=O)c1ccccc1)c1ccc(NCc2ccccc2)cc1 [Example 16, 4-Benzylamino-benzoic acid 2-(phenylsulfonyl)hydrazide] | 214 to 215 °C | 4.4 | 27
O=C(NNS(=O)(=O)c1ccccc1)c1ccc(OCc2ccccc2)cc1 [Example 29] | 159 to 160 °C | 48 | 26
O=C(NNS(=O)(=O)c1ccccc1)c1ccc(-c2ccccc2)cc1 [Example 25, [1,1′-Biphenyl]-4-carboxylic acid, 2-(phenylsulfonyl)hydrazide] | 216 to 219 °C | 1.5 | 16
O=C(NNS(=O)(=O)c1ccccc1)c1ccc(CCC2(O)CCCCC2)cc1 [Example 36] | 158 to 159 °C | 0.25 | 15.4

The remaining lines, values ahead:

melting point | IC50 [1] [µM] | IC50 [2] [µM] | SMILES
197 to 199 °C | 1.2 | 57 | CC(C)(C)c1ccc(C(=O)NNS(=O)(=O)c2ccccc2)cc1 [Example 24, 4-(1,1-Dimethylethyl)-benzoic acid, 2-(phenylsulfonyl)hydrazide]
168 to 169 °C | 0.25 | 9.5 | CC(C)(C)CCc1ccc(C(=O)NNS(=O)(=O)c2ccccc2)cc1 [Example 38, 4-(3,3-Dimethyl-1-butyl)-benzoic acid, 2-(phenylsulfonyl)hydrazide]
160 °C (dec.) | 4.3 | 34.8 | CC(C)(C)C#Cc1ccc(C(=O)NNS(=O)(=O)c2ccccc2)cc1 [Example 37, 4-(3,3-Dimethyl-1-butynyl)benzoic acid, 2-(phenylsulfonyl)hydrazide]
171 to 173 °C | 28.1 | 60 | Nc1ccc(C(=O)NNS(=O)(=O)c2ccccc2)cc1 [Example 2, Benzoic acid, 4-amino-2-(phenylsulfonyl)hydrazide]
